Results reported in US8841312B2, “Fused pyridine, pyrimidine and triazine compounds as cell cycle inhibitors” (Amgen Inc., priority 2007, dated 2014).

How the values were obtained:
[1] = target: Cdk4/CyclinD1 (Homo sapiens (Human), UniProt P11802); experiment: Cdk4 kinase inhibition assay with recombinant Cdk4/CyclinD1, Rb substrate, [33P]-ATP filter plate; type: biochemical; conditions: 25 μM ATP, read-out: Cdk 4 IC50
Procedure, shortened: (§1)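 Recombinant Cdk4/CyclinD1 or Cdk6/CyclinD3 phosphorylated Rb protein with [33P]-ATP for 1 h at room temperature. Protein was TCA-precipitated on filter plates and bound radioactivity counted. IC50 by nonlinear regression.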

[2] = target: Cdk6/CyclinD3 (Homo sapiens (Human), UniProt Q00534); experiment: Cdk6 kinase inhibition assay with recombinant Cdk6/CyclinD3, Rb substrate, [33P]-ATP filter plate; type: biochemical; conditions: 25 μM ATP, read-out: Cdk 6 IC50
Chain of Cdk6/CyclinD3 (Q00534 whole entry): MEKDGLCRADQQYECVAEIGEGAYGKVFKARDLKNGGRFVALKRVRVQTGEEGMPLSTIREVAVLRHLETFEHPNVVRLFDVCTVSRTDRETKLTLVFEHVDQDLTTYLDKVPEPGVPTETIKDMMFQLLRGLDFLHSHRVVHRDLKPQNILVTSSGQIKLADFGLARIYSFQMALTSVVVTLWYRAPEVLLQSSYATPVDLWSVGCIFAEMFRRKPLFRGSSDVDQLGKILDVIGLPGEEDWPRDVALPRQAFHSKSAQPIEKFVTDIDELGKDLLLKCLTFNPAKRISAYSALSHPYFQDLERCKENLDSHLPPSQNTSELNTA
Chain of Cdk6/CyclinD3 (P30281 whole entry partner): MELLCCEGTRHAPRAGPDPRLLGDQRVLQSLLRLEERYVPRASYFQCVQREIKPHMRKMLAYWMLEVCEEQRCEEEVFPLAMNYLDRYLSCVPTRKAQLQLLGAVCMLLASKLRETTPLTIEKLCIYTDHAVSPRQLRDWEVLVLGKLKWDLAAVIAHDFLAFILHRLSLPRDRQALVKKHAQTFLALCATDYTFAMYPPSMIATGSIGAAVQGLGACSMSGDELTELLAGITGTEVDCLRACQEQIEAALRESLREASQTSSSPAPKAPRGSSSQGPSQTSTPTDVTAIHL
Procedure, shortened: as §1

Chain of Cdk4/CyclinD1 (P11802 whole entry): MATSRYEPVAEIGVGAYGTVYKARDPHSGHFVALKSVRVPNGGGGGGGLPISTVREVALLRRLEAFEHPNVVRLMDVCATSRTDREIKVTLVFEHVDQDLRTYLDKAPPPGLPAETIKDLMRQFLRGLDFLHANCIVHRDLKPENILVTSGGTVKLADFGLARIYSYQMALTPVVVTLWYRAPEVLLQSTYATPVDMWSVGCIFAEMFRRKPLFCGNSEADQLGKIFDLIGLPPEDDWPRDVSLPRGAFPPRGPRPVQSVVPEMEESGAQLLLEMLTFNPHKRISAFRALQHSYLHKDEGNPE
Chain of Cdk4/CyclinD1 (P24385 whole entry partner): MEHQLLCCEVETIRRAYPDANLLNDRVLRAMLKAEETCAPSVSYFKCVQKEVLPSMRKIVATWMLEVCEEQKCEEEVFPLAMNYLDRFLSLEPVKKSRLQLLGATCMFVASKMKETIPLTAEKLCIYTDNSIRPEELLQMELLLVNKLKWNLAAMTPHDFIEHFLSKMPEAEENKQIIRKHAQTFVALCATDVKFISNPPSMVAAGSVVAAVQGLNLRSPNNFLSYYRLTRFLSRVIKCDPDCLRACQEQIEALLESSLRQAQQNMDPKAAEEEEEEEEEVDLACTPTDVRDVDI

| IC50 [1] [nM] | IC50 [2] [nM] | Compound |
| --- | --- | --- |
| 7 | 5.3 | c1cc2c3cnc(Nc4ccc(C5CCNCC5)cn4)nc3n(C3CCCC3)c2cn1 [Example 257, 9-cyclopentyl-N-(5-(4-piperidinyl)-2-pyridinyl)-9H-pyrido[4′,3′:4,5]pyrrolo[2,3-d]pyrimidin-2-amine] |
| 2 | 4.3 | Clc1nccc2c3cnc(Nc4ccc(N5CCNCC5)cn4)nc3n(C3CCCC3)c12 [Example 152, 8-Chloro-9-cyclopentyl-N-(5-(1-piperazinyl)-2-pyridinyl)-9H-pyrido[4′,3′:4,5]pyrrolo[2,3-d]pyrimidin-2-amine] |
| 237 | 500 | COc1cc2c3cnc(Nc4ccc(N5CCNCC5)cn4)nc3n(C3CCCC3)c2cn1 [Example 42, (9-Cyclopentyl-6-methoxy-9H-pyrido[4′,3′:4,5]pyrrolo[2,3-d]pyrimidin-2-yl)-(5-piperazin-1-yl-pyridin-2-yl)-amine] |
| 149 | 111 | O[C@H]1CCN(c2ccc(Nc3ncc4c5ccccc5n(C5CCCC5)c4n3)nc2)C1 [Example 305] |
| 15 | 18 | OC1CCN(C2CCN(c3ccc(Nc4ncc5c6ccncc6n(C6CCCC6)c5n4)nc3)CC2)CC1 [Example 463] |
| 2.5 | 5.9 | O[C@H]1CC[C@H](n2c3cnccc3c3cnc(Nc4ccc(N5CCNCC5)cn4)nc32)CC1 [Example 31, 4-[2-(5-piperazin-1-yl-pyridin-2-ylamino)-pyrido[4′,3′:4,5]pyrrolo[2,3-d]pyrimidin-9-yl]-trans-cyclohexanol] |
| 47 | 23 | C[C@H]1CN(c2ccc(Nc3ncc4c5ccccc5n(C5CCCC5)c4n3)nn2)CCN1 [Example 302] |
| 31 | 30 | CC1CN(c2ccc(Nc3ncc4c5ccccc5n(C5CCCC5)c4n3)nc2)CC(C)N1 (centres unmarked) [Example 303] |
| 470 | 590 | C[C@@H](O)Cn1c2cnccc2c2cnc(Nc3ccc(N4CC[C@@H](O)C4)cn3)nc21 [Example 358] |
| 11 | 21 | c1cc2c3cnc(Nc4ccc(N5CCNCC5)cn4)nc3n(C3CCCCCC3)c2cn1 [Example 34, (9-Cycloheptyl-9H-pyrido[4′,3′:4,5]pyrrolo[2,3-d]pyrimidin-2-yl)-(5-piperazin-1-yl-pyridin-2-yl)-amine] |
| 24 | 34 | COC(=O)CNC1CCN(c2ccc(Nc3ncc4c5ccncc5n(C5CCCC5)c4n3)nc2)CC1 [Example 472] |
| 11 | 8 | NC1CCN(c2ccc(Nc3ncc4c5ccccc5n(C5CCCC5)c4n3)nn2)CC1 [Example 308] |
| 113 | 16 | COc1ccc2c3cnc(Nc4ccc(N5CCNCC5)cn4)nc3n(C3CCCC3)c2n1 [Example 182, 9-Cyclopentyl-7-methoxy-N-(5-(1-piperazinyl)-2-pyridinyl)-9H-pyrido[3′,2′:4,5]pyrrolo[2,3-d]pyrimidin-2-amine] |
| 4.1 | 12 | c1cc2c3cnc(Nc4ccc(N5CCC(NC6CC6)CC5)cn4)nc3n(C3CCCC3)c2cn1 [Example 465] |
| 8.6 | 24 | O[C@H]1CCN(c2ccc(Nc3ncc4c5ccnc(F)c5n(C5CCCC5)c4n3)nn2)C1 [Example 311] |

The remaining lines, values behind:

| Compound | IC50 [1] [nM] | IC50 [2] [nM] |
| --- | --- | --- |
| c1cc2c3cnc(Nc4ccc(NC5CCNCC5)nn4)nc3n(C3CCCC3)c2cn1 [Example 96] | 16.2 | 12.4 |
| C[C@H]1CN(c2ccc(Nc3ncc4c5ccncc5n(CCCO)c4n3)nc2)CCN1 [Example 351] | 80 | 176 |
| CN(C)C1CCN(c2ccc(Nc3ncc4c5ccnc(F)c5n(C5CCCC5)c4n3)nn2)CC1 [Example 252, 9-Cyclopentyl-N-(6-(4-(dimethylamino)-1-piperidinyl)-3-pyridazinyl)-8-fluoro-9H-pyrido[4′,3′:4,5]pyrrolo[2,3-d]pyrimidin-2-amine] | 2 | 5 |
| C[C@H]1CN(c2ccc(Nc3ncc4c5ccncc5n(C5CCCC5)c4n3)nn2)CCN1 [Example 9] | 3.8 | 19.5 |
| O[C@H]1CCN(C2CCN(c3ccc(Nc4ncc5c6ccncc6n(C6CCCC6)c5n4)nn3)CC2)C1 [Example 450] | 10 | 16 |
| c1cc2c3cnc(Nc4ccc(N5CCNCC5)nn4)nc3n(C3CCCC3)c2cn1 [Example 6, 9-cyclopentyl-N-(6-(1-piperazinyl)-3-pyridazinyl)-9H-pyrido[4′,3′:4,5]-pyrrolo[2,3d]pyrimidin-2-amine] | 1.5 | 6.6 |
| CCOC(=O)CN1CCN(c2ccc(Nc3ncc4c5ccncc5n(C5CCCC5)c4n3)nn2)CC1 [Example 217, ethyl (4-(6-((9-cyclopentyl-9H-pyrido[4′,3′:4,5]pyrrolo[2,3-d]pyrimidin-2-yl)amino)-3-pyridazinyl)-1-piperazinyl)acetate] | 3.6 | 9.8 |
| Fc1nccc2c3cnc(Nc4ccc(CN5CCNCC5)cn4)nc3n(C3CCCC3)c12 [Example 213, 9-cyclopentyl-8-fluoro-N-(5-(1-piperazinylmethyl)-2-pyridinyl)-9H-pyrido[4′,3′:4,5]pyrrolo[2,3-d]pyrimidin-2-amine] | 203 | 52 |
| COc1ccc(-n2c3cnccc3c3cnc(Nc4ccc(N5CCNCC5)cn4)nc32)cc1 [Example 16] | 10 | 21 |
| Oc1ccc(-c2ccc(Nc3ncc4c5ccncc5n(C5CCCC5)c4n3)nn2)cn1 [Example 266, 5-(6-((9-Cyclopentyl-9H-pyrido[4′,3′:4,5]pyrrolo[2,3-d]pyrimidin-2-yl)amino)-3-pyridazinyl)-2-pyridinol] | 3.1 | 6.5 |
| c1ccc2c(c1)c1cnc(Nc3ccc(N4CCNCC4)cc3)nc1n2C1CCOCC1 [Example 46, (4-piperazin-1-yl-phenyl)-[9-(tetrahydro-pyran-4-yl)-9H-pyrimido[4,5-b]indol-2-yl]-amine] | 2 | 0.75 |
| O=S(=O)(c1ccc(Nc2ncc3c4ccnc(F)c4n(C4CCCC4)c3n2)nc1)N1CCNCC1 [Example 228, 9-cyclopentyl-8-fluoro-N-(5-(1-piperazinylsulfonyl)-2-pyridinyl)-9H-pyrido[4′,3′:4,5]pyrrolo[2,3-d]pyrimidin-2-amine] | 15 | 3.9 |
| c1cc2c3cnc(Nc4ccc(N5CCNCC5)cn4)nc3n(C34CC5CC(CC(C5)C3)C4)c2cn1 [Example 26, (9-Adamantan-1-yl-9H-pyrido[4′,3′:4,5]pyrrolo[2,3-d]pyrimidin-2-yl)-(5-piperazin-1-yl-pyridin-2-yl)-amine] | 1.6 | 3.5 |
| c1cc2c3cnc(Nc4ccc(N5CCNCC5)cn4)nc3n(C3CCOCC3)c2cn1 [Example 20, (5-piperazin-1-yl-pyridine-2-yl)-[9-(tetrahydro-pyran-4-yl)-9H-pyrido-[4′,3′,4,5]pyrrolo[2,3-d]pyrimidin-2-yl]-amine] | 8.1 | 57 |
| FC(F)(F)CNC1CCN(c2ccc(Nc3ncc4c5ccncc5n(C5CCCC5)c4n3)nn2)CC1 [Example 456] | 110 | 380 |
| CN(CCO)C1CCN(c2ccc(Nc3ncc4c5ccncc5n(C5CCCC5)c4n3)nn2)CC1 [Example 440] | 5.8 | 14 |
| CN(C)C1CCN(c2ccc(Nc3ncc4c5ccncc5n(C5CCCC5)c4n3)nn2)CC1 [Example 13] | 1 | 2.6 |
| CCN(CCO)C1CCN(c2ccc(Nc3ncc4c5ccncc5n(C5CCCC5)c4n3)nn2)CC1 [Example 454] | 5.2 | 11 |
| NC1[C@H]2CN(c3ccc(Nc4ncc5c6ccncc6n(C6CCCC6)c5n4)nn3)C[C@@H]12 (stereo partly drawn) [Example 272, N-(6-((1R,5S)-6-amino-3-azabicyclo[310]hex-3-yl)-3-pyridazinyl)-9-cyclopentyl-9H-pyrido[4′,3′:4,5]pyrrolo[2,3-d]pyrimidin-2-amine] | 27 | 101 |
| CC(C)(C)n1c2cnccc2c2cnc(Nc3ccc(N4CCNCC4)cn3)nc21 [Example 27, (9-tert-Butyl-9H-pyrido[4′,3′:4,5]pyrrolo[2,3-d]pyrimidin-2-yl)-(5-piperazin-1-yl-pyridin-2-yl)-amine] | 5.5 | 7 |
| O=S1(=O)CCC(Nc2ccc(Nc3ncc4c5ccncc5n(C5CCCC5)c4n3)nc2)C1 (centres unmarked) [Example 65] | 9.6 | 24 |
| COCCn1c2cnccc2c2cnc(Nc3ccc(N4CCNCC4)cn3)nc21 [Example 312] | 370 | 790 |
| C[C@H](CO)Nc1ccc(Nc2ncc3c4ccncc4n(C4CCCC4)c3n2)nn1 [Example 295] | 6.8 | 33.7 |
| CCC(C)(C)n1c2cnccc2c2cnc(Nc3ccc(N4CCNCC4)cn3)nc21 [Example 157, 9-(1,1-dimethylpropyl)-N-(5-(1-piperazinyl)-2-pyridinyl)-9H-pyrido-[4′,3′:4,5]pyrrolo[2,3-d]pyrimidin-2-amine] | 30 | 25 |
| CCC(CC)n1c2cnccc2c2cnc(Nc3ccc(N4CC[C@@H](O)C4)nn3)nc21 [Example 162, (3R)-1-(6-((9-(1-Ethylpropyl)-9H-pyrido[4′,3′:4,5]pyrrolo[2,3-d]pyrimidin-2-yl)-amino)-3-pyridazinyl)-3-pyrrolidinol] | 10000 | 110 |
| CNC1CCN(c2ccc(Nc3ncc4c5ccncc5n(C5CCC5)c4n3)nn2)CC1 [Example 434] | 13 | 19 |
| O=C(O)CN1CCN(c2ccc(Nc3ncc4c5ccncc5n(C5CCCC5)c4n3)nn2)CC1 [Example 218, (4-(6-((9-cyclopentyl-9H-pyrido[4′,3′:4,5]pyrrolo[2,3-d]pyrimidin-2-yl)amino)-3-pyridazinyl)-1-piperazinyl)acetic acid] | 1.39 | 3.6 |
| CC[C@@H](C)n1c2cnccc2c2cnc(Nc3ccc(N4CCC(NC)CC4)nn3)nc21 [Example 318] | 2.9 | 27 |
